SMILES strings stand for the structures.

In one assay the target is T1, cruzain (Trypanosoma cruzi, UniProt P25779).
T1 construct: inferred from Ni-NTA purification of the pro-enzyme; made in house; host or cells: Escherichia coli (M15)
Briefly: Cruzain inhibition assay (cleavage of fluorogenic substrate Z-Phe-Arg-AMC). Particulars: for inhibition at 100 µM: at 100 μM inhibitor, mean of three measurements, read-out: Percent inhibition against cruzain; for IC50: mean ± SD of three individual experiments, at least six inhibitor concentrations in triplicate, 1.5 nM cruzain, 5.0 μM Z-Phe-Arg-AMC, pH 5.5; for decrease in potency against cruzain relative to 3a: less active than 3a. Format: biochemical. As for the experimental part: The catalytic activity of cruzain was monitored by cleavage of the fluorogenic substrate Z-Phe-Arg-aminomethyl coumarin (Z-Phe-Arg-AMC) as previously described (Ferreira et al., [2014]). The enzyme kinetics assays were performed in 0.1 M sodium acetate buffer (pH 5.5) with 5 mM dithiothreitol (DTT) and 0.01% Triton X-100. […] The enzyme reaction was monitored for 5 min at 30°C in 96-well black flat bottom plates, and the activity was calculated based on the initial rates compared with a control (DMSO). Wavelengths of 355 nm for excitation and 460 nm for emission were used. IC50 values were independently determined by determining rate measurements for at least six inhibitor concentrations, each evaluated in triplicate. To determine the mechanism of inhibition, eight substrate concentrations and four inhibitor concentrations were used, each in triplicate. The mechanism of inhibition was determined by Lineweaver-Burk plots. SigmaPlot 10.0 (Systat Software Inc., Erkrath, Germany) was used to determine the IC50 values.

The test system of assay [1] is T. cruzi intracellular amastigotes. As to the kind of experiment: T. cruzi intracellular amastigote assay (Tulahuen lacZ strain, CPRG readout). In kind it is cell-based, Trypanosoma cruzi. Particulars: intracellular amastigotes; for IC50: Trypanosoma cruzi, Tulahuen strain in HFF-1 fibroblasts, 120 h, mean ± SD of two experiments, read-out: IC50 T. cruzi. As for the experimental part:
In vitro assays against T. cruzi were performed as described previously (Ferreira et al., [2014]). The T. cruzi Tulahuen strain, which expresses the E. coli β-galactosidase gene lacZ (Buckner et al., [1996]), was provided by Frederick S. Buckner (University of Washington, Seattle, WA). Stock solutions of the synthesized compounds were prepared in 100% DMSO. Epimastigotes were grown in liver infusion tryptone (LIT) supplemented with 10% fetal calf serum (FCS), penicillin and streptomycin (28°C). Metacyclogenesis from epimastigotes to trypomastigotes was induced by incubation of the epimastigotes in Grace's insect medium (Sigma-Aldrich, St. Louis, MO) supplemented with 10% FCS (28°C). HFF-1 human fibroblasts were seeded at 2 × 10^3/well (80 μL) in 96-well tissue culture plates in RPMI 1640 without phenol red supplemented with 10% FCS and incubated overnight (37°C, 5% CO2). Next, trypomastigotes were added at 1.0 × 10^4/well (20 μL), and the plates were incubated (37°C, 5% CO2). After 24 h, 3-fold serial dilutions (50 μL) of the synthesized compounds were added at concentrations ranging from 0.1 to 100 μM, and the plates were incubated (37°C, 5% CO2). Each compound concentration was evaluated in triplicate. All plates included BZ (Sigma-Aldrich) as a positive control and untreated wells (100% growth) as a negative control. After 120 h, 50 μL of chlorophenol red β-D-galactopyranoside (CPRG, Sigma-Aldrich) and IGEPAL CA-630 (Sigma-Aldrich) (0.1%) was added to each well. The absorbance was measured at 570 nm in an automated microplate reader, and the data were transferred to SigmaPlot 10.0 (Systat Software Inc.) for IC50 value calculation.

T1 sequence (P25779 123-337 limits assumed): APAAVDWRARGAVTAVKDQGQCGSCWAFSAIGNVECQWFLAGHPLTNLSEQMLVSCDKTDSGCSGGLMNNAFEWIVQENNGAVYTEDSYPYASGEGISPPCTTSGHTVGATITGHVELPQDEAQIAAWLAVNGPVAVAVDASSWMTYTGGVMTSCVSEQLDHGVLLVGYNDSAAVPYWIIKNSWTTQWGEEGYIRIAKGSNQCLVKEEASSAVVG

On to `COc1ccc(NC(=O)COC(=O)CN2C(=O)C3CC=CCC3C2=O)cc1Cl` (stereo not drawn) [10g, 2-((3-chloro-4-methoxyphenyl)amino)-2-oxoethyl 2-(1,3-dioxo-1,3,3a,4,7,7a-hexahydro-2H-isoindol-2-yl)acetate], for which, at cruzain, the “activity against cruzain (in words)” value was “inactive” and the inhibition at 100 µM is 0%.
Take `COc1ccc(NC(=O)CNC(=O)C(CC(C)C)N2C(=O)C3CC=CCC3C2=O)cc1Cl` (stereo not drawn) [compound 5, N-(2-((3-chloro-4-methoxyphenyl)amino)-2-oxoethyl)-2-(1,3-dioxo-1,3,3a,4,7,7a-hexahydro-2H-isoindol-2-yl)-4-methylpentanamide]: the inhibition at 100 µM on cruzain was found to be 38%.
For the molecule `CC(C)C[C@@H](C(=O)OCC(=O)Nc1ccc(O)cc1)N1C(=O)C2CC=CCC2C1=O` (stereo partly drawn) [3h, 2-((4-hydroxyphenyl)amino)-2-oxoethyl (2S)-2-(1,3-dioxo-1,3,3a,4,7,7a-hexahydro-2H-isoindol-2-yl)-4-methylpentanoate], on cruzain, the inhibition at 100 µM amounted to 6%.
For `COc1ccc(NC(=O)COC(=O)[C@@H](Cc2ccc3ccccc3c2)N2C(=O)C3CC=CCC3C2=O)cc1Cl` (stereo partly drawn) [10i, 2-((3-chloro-4-methoxyphenyl)amino)-2-oxoethyl (2R)-2-(1,3-dioxo-1,3,3a,4,7,7a-hexahydro-2H-isoindol-2-yl)-3-(naphthalen-2-yl)propanoate], the inhibition at 100 µM at cruzain is 58%.
Regarding `CC(C)C[C@@H](C(=O)OCC(=O)Nc1ccc(Br)cc1)N1C(=O)C2CC=CCC2C1=O` (stereo partly drawn) [3f, 2-((4-bromophenyl)amino)-2-oxoethyl (2S)-2-(1,3-dioxo-1,3,3a,4,7,7a-hexahydro-2H-isoindol-2-yl)-4-methylpentanoate], at cruzain, the inhibition at 100 µM is 53%.
For `COc1ccc(NC(=O)COC(=O)[C@H](CC(C)C)N2CCCC2)cc1Cl` [10k, 2-((3-chloro-4-methoxyphenyl)amino)-2-oxoethyl (S)-4-methyl-2-(pyrrolidin-1-yl)pentanoate], at cruzain, the “activity against cruzain (in words)” value is “inactive” and the inhibition at 100 µM is 6%. In assay [1], the half-inhibitory concentration (IC50) was above 100 µM and the “activity against T. cruzi (in words)” value is “inactive”.
For `COc1ccc(NC(=O)COC(=O)[C@H](CC(C)C)N2C(=O)C3CC=CCC3C2=O)cc1` (stereo partly drawn) [3b, 2-((4-methoxyphenyl)amino)-2-oxoethyl (2S)-2-(1,3-dioxo-1,3,3a,4,7,7a-hexahydro-2H-isoindol-2-yl)-4-methylpentanoate], at cruzain, the inhibition at 100 µM is 86% and inhibition was half-maximal at 13.9 µM (IC50).
At cruzain, `COc1ccc(NC(=O)COC(=O)C(Cc2ccccc2)N2C(=O)C3CC=CCC3C2=O)cc1Cl` (stereo not drawn) [10hrac, 2-((3-chloro-4-methoxyphenyl)amino)-2-oxoethyl 2-(1,3-dioxo-1,3,3a,4,7,7a-hexahydro-2H-isoindol-2-yl)-3-phenylpropanoate] had a 50% inhibitory concentration (IC50) of 1.16 µM.
With `COc1ccc(NC(=O)COC(=O)C(CC(C)C)N2C(=O)C3CC=CCC3C2=O)c([N+](=O)[O-])c1` (stereo not drawn) [3m], the inhibition at 100 µM on cruzain is 53%.
With `CC(C)C[C@@H](C(=O)OCC(=O)Nc1ccccc1)N1C(=O)C2CC=CCC2C1=O` (stereo partly drawn) [3d, 2-oxo-2-(phenylamino)ethyl (2S)-2-(1,3-dioxo-1,3,3a,4,7,7a-hexahydro-2H-isoindol-2-yl)-4-methylpentanoate], on cruzain, the inhibition at 100 µM was found to be 76%; the “decrease in potency against cruzain relative to 3a” value was found to be 8 fold; the midpoint of inhibition, the IC50, lay at 16.7 ± 1.3 µM. Moreover, in assay [1], the IC50 was above 100 µM.
On to `CC(C)C[C@@H](C(=O)OCC(=O)Nc1ccc(Cl)cc1)N1C(=O)C2CC=CCC2C1=O` (stereo partly drawn) [3g, 2-((4-chlorophenyl)amino)-2-oxoethyl (2S)-2-(1,3-dioxo-1,3,3a,4,7,7a-hexahydro-2H-isoindol-2-yl)-4-methylpentanoate], for which the inhibition at 100 µM on cruzain was 56%.
For the molecule `CC(C)C[C@@H](C(=O)OCC(=O)Nc1cccc(Cl)c1)N1C(=O)C2CC=CCC2C1=O` (stereo partly drawn) [3c, 2-((3-chlorophenyl)amino)-2-oxoethyl (2S)-2-(1,3-dioxo-1,3,3a,4,7,7a-hexahydro-2H-isoindol-2-yl)-4-methylpentanoate], on cruzain, the inhibition at 100 µM amounted to 67% and the half-inhibitory concentration (IC50) worked out at 40.1 µM.
As for `COc1ccc(NC(=O)COC(=O)[C@H](CC(C)C)N2C(=O)C3CC=CCC3C2=O)cc1Cl` (stereo partly drawn) [3a, 2-((3-chloro-4-methoxyphenyl)amino)-2-oxoethyl (2S)-2-(1,3-dioxo-1,3,3a,4,7,7a-hexahydro-2H-isoindol-2-yl)-4-methylpentanoate], at cruzain, the inhibition at 100 µM is 88% and the midpoint of inhibition, the IC50, lay at 2.2 ± 0.4 µM. For the same molecule, in assay [1], the IC50 was above 100 µM and the “activity against T. cruzi (in words)” value was “not active”.
For the molecule `COc1ccc(NC(=O)COC(=O)[C@H](Cc2ccccc2)N2C(=O)C3CC=CCC3C2=O)cc1Cl` (stereo partly drawn) [10h, 2-((3-chloro-4-methoxyphenyl)amino)-2-oxoethyl (2S)-2-(1,3-dioxo-1,3,3a,4,7,7a-hexahydro-2H-isoindol-2-yl)-3-phenylpropanoate], on cruzain, the “activity against cruzain (in words)” value was “active”, the inhibition at 100 µM is 96% and inhibition was half-maximal at 1.4 ± 0.8 µM (IC50). Further, the mechanism of inhibition result on cruzain (Lineweaver-Burk plots, eight substrate and four inhibitor concentrations) was “competitive”. Besides, the “increase in potency against cruzain relative to 3a” value at cruzain (more active than 3a) is 2 fold. In assay [1], the IC50 was above 100 µM and the “activity against T. cruzi (in words)” value is “inactive”.
Turning to `CC(C)C[C@@H](C(=O)OCC(=O)Nc1ccc(F)c([N+](=O)[O-])c1)N1C(=O)C2CC=CCC2C1=O` (stereo partly drawn) [3j, 2-((4-fluoro-3-nitrophenyl)amino)-2-oxoethyl (2S)-2-(1,3-dioxo-1,3,3a,4,7,7a-hexahydro-2H-isoindol-2-yl)-4-methylpentanoate], the inhibition at 100 µM on cruzain was 56%.
Take `CC(C)CC(C(=O)OCC(=O)Nc1ccc([N+](=O)[O-])cc1)N1C(=O)C2CC=CCC2C1=O` (stereo not drawn) [3l]: the inhibition at 100 µM on cruzain was determined as 67%.
Regarding `COc1ccc(NC(=O)COC(=O)[C@H](CC(C)C)N2C(=O)c3ccccc3C2=O)cc1Cl` [10a, 2-((3-chloro-4-methoxyphenyl)amino)-2-oxoethyl (S)-2-(1,3-dioxoisoindolin-2-yl)-4-methylpentanoate], the inhibition at 100 µM at cruzain was 39%.
On to `CC(C)C[C@@H](C(=O)OCC(=O)Nc1ccc(F)cc1)N1C(=O)C2CC=CCC2C1=O` (stereo partly drawn) [3e, 2-((4-fluorophenyl)amino)-2-oxoethyl (2S)-2-(1,3-dioxo-1,3,3a,4,7,7a-hexahydro-2H-isoindol-2-yl)-4-methylpentanoate], for which the inhibition at 100 µM on cruzain turned out to be 74%. Besides, the concentration for half-maximal inhibition (IC50) on cruzain is 20.5 ± 1.3 µM; in assay [1], above 100 µM.
Turning to `COc1ccc(NC(=O)COC(=O)[C@H](CC(C)C)N2C(=O)C3CCCCC3C2=O)cc1Cl` (stereo partly drawn) [10b, 2-((3-chloro-4-methoxyphenyl)amino)-2-oxoethyl (2S)-2-(1,3-dioxooctahydro-2H-isoindol-2-yl)-4-methylpentanoate], on cruzain, the inhibition at 100 µM was 75%, the “decrease in potency against cruzain relative to 3a” value is reported as 2 fold and the IC50 turned out to be 4.2 ± 1.5 µM. The concentration for half-maximal inhibition (IC50) in assay [1] was above 100 µM.

The inhibition is the share of the control response that was lost under treatment. The IC50 is the midpoint of a concentration-inhibition curve.

(Values after PMC6886403, “Structure-Based and Molecular Modeling Studies for the Discovery of Cyclic Imides as Reversible Cruzain Inhibitors With Potent Anti-Trypanosoma cruzi Activity” (Frontiers in Chemistry, 2019).)
